The subject of one series is SD rats. In words: Test Example 1: genital organ weights after ethynylestradiol dosing for 2 weeks. It counts as in vivo, rat. The following applies: ethynylestradiol 3 mg/kg orally once daily for 2 weeks, n = 8. How it is done: SD rats aged 11 weeks (in groups of 8) were orally dosed with 3 mg/kg of the endocrine disturbing chemical ethynylestradiol suspended in 0.5% sodium carboxymethylcellulose (CMC) solution (ethynylestradiol 0.6 mg/mL) or, as control, 5 mL/kg of 0.5% CMC solution once daily in the morning for 2 weeks, and after the administration course, the testis, epididymis, prostate and seminal vesicle were respectively weighed.
Rat husbandry conditions: room temperature 21˜25° C., humidity 45˜60%, artificial lighting 12 hrs (7:00 a.m.˜7:00 p.m.), ventillation frequency 15/hr, solid food (CE-2, CLEA Japan Inc.) and drinking water ad libitum.

A further series has as its system Slc:SD rats. Kind of series: Test Example 2: genital organ weights 1 week after ethynylestradiol dosing for 10 days. To be noted: ethynylestradiol 3 mg/kg orally once daily for 10 days, weighed 1 week after the course, n = 10. The class given is in vivo, rat. How it is done: Slc:SD rats aged 10 weeks (in groups of 10) were orally dosed with 3 mg/kg of the endocrine disturbing chemical ethynylestradiol suspended in 0.5% sodium carboxymethylcellulose (CMC) solution (ethynylestradiol 0.3 mg/mL) or, as control, 10 mL/kg of 0.5% CMC solution once daily in the morning for 10 days, and at 1 week after the administration course, the testis, epididymis, prostate and seminal vesicle were respectively weighed.
Rat husbandry conditions: room temperature 21˜25° C., humidity 45˜60%, artificial lighting 12 hrs (7:00 a.m.˜7:00 p.m.), ventilation frequency 15/hr, solid food (CE-2, CLEA Japan Inc.) and drinking water ad libitum.

For series [1], the system named is rats with the genital organs impaired by ethynylestradiol. The following applies: rat, in vivo. How it is done: Using rats with the genital organs impaired by ethynylestradiol as in Test Example 2, the sperm count and motile sperm rate were investigated.
From the right epididymis, the caudal epididymis was excised and weighed with Sartorius electronic balance LC620-S. The caudal epididymis was placed in a sperm collection vial containing 5 mL of BSA-Hanks solution and cut 3 times to cause the sperm to swim out. A 0.05 mL portion of the sperm fluid was sampled and diluted with 0.95 mL of BSA-Hanks solution for use as a diluted sperm fluid. The number of non-motile sperms in the diluted sperm fluid was determined with Thoma's hemocytometer. After this counting of non-motile sperms, the vessel containing the diluted sperm fluid was immersed in hot water and, after return to room temperature, the sperms were counted with the hemocytometer. […] Using the measured values, the motile sperm rate was calculated by means of the following equation [1]. Motile sperm rate (%)=(number of sperms−number of non-motile sperms)/number of sperms×100 [1] (2) Method for Determination of Sperm Count
The caudal epididymis in the sperm collection vial used in the above procedure (1) was further cut to release sperms and the fluid in the vial was filtered through a nylon-mesh sieve. The stock filtrate, 0.1 mL, was diluted with 1.9 mL of formalinized saline and the number of sperms was determined with Thoma's hemocytometer. When the sperm population in the sperm sample was considered to be too small (low turbidity), the stock sperm fluid was not diluted but the vessel was directly immersed in hot water and, after reutrn to room temperature, the number of sperms was determined. Moreover, the number of sperms (sperm count) per caudal epididymis was calculated using the number of sperms determined and the dilution factor by means of the equation given below, with the value per caudal epididymis unit weight (g) being taken as the sperm count/caudal epididymis and the value per epididymis as the sperm count/epididymis.
Sperm count=measured number of sperms×dilution factor Number of sperms/caudal epididymis=number of sperms determined×dilution factor/weight of the caudal epididymis epididymis (g) Number of sperms/epididymis=(number of sperms/caudal epididymis)×weight of epididymis (g)

Take `C#C[C@]1(O)CC[C@H]2[C@@H]3CCc4cc(O)ccc4[C@H]3CC[C@@]21C` [Ethynylestradiol, ethynylestradiol]: in the series on SD rats, the Epididymis weight amounted to 118 mg/100 g body weight, the Prostate weight came to 77.4 mg/100 g body weight, the Seminal vesicle weight is 88.1 mg/100 g body weight and the Testis weight turned out to be 705 mg/100 g body weight. Besides, in the series on Slc:SD rats, the Epididymis weight is given as 154.5 ± mg/100 gBW, the Prostate weight is given as 102.3 ± mg/100 gBW, the Seminal vesicle weight is on record as 170.0 ± mg/100 gBW and the Testis weight is 731.3 ± mg/100 gBW. In series [1], the “Caudal epididymis (weight, g)” value worked out at 0.076 g; the Motile sperm rate is listed as 40.6 ± %; the Sperm count is 13.0 ± x10^6; the Sperm count/caudal epididymis was 160.2 ± x10^6. Besides, the Sperm count/epididymis in series [1] is recorded as 88.8 ± x10^6.

The record behind these values is US6866872B1, “Withania somnifera Dunal extracts for increasing male sperm count” (Nippon Shinyaku Co., Ltd., priority 1999, dated 2005).
